# Publication PMC12587574, “Mass balance, pharmacokinetics, metabolism, and excretion of radiolabeled acoziborole, a potential novel treatment for human African trypanosomiasis, following single microtracer oral dose to humans” (Antimicrobial Agents and Chemotherapy, 2025)
# Like-named read-outs stand apart in the source and are kept apart here.
# Columns and labels:
# [1] = Plasma pharmacokinetics of acoziborole and SCYX-3109 by LC-MS/MS, phase I mass balance study; assay type: in vivo, human
# Procedure: This single-center, open-label, single group, non-randomized, single oral dose study was performed at Quotient Sciences Ltd (Ruddington, Nottingham, UK). Clinical trial authorization was obtained from the Medicines and Healthcare Products Regulatory Agency (UK). Approval for administration of [^14C]-acoziborole was obtained from an expert committee sponsored by the Department of Health and Social Care in the United Kingdom (Administration of Radioactive Substances Advisory Committee [ARSAC]), and from the ARSAC-accredited Quotient Sciences’ nuclear medicine practitioner. This study was approved by a local research ethics committee in the United Kingdom and was conducted in compliance with the Declaration of Helsinki and the International Conference on Harmonisation E6 Guideline for Good Clinical Practice. The study was registered in clinicaltrials.gov (NCT04270981) and in EudraCT (reference 2019-004059-35). Written informed consent was obtained from all participants before undertaking any study-related procedures.
# Participants were admitted in the evening of the day before dosing (Day −1) and were dosed in the morning of Day 1, following an overnight fast from food and drink of a minimum of 9 h. They remained fasted until approximately 4 h post-dose, at which time lunch was provided. Participants remained resident in the clinic until up to 240 h after dosing (up to Day 11). […] However, due to the COVID-19 pandemic, instead of returning for the outpatient visits, participants were requested to perform home collection of feces for a 48-h period (i.e., Days 31–33, Days 59–61, Days 89–91, and Days 119–121). Collected samples were couriered to the clinical unit at the end of each collection period. A follow-up call took place 5–10 days after the final outpatient visit to ensure the well-being of participants.
# Venous blood samples were collected via an indwelling cannula or by venepuncture. A 12 mL sample was taken into heparinized glass tube and chilled on ice immediately before IP administration and 3 mL samples were taken at 1, 4, 9, 12, 24, 48, 72, 96, 120, 144, 168, and 240 h and on Days 15, 31, 59, 89, and 119 after IP administration. The first 0.5 mL of blood withdrawn via cannula was discarded. One aliquot of heparinized whole blood (1 mL) per time point was stored at or below −20°C for total radioactivity analysis. The remaining blood was centrifuged, and the harvested plasma was stored at approximately −20°C for bioanalysis or transferred (exactly 1 mL) into polypropylene tubes pre-filled with 5 µL formic acid. One plasma sample (0.5 mL) was used for metabolite profiling while another (0.5 mL) was used for parent drug and SCYX-3109 metabolite analysis. The remaining plasma was used for total radioactivity analysis.
# (§1) SGS Belgium (Wavre, Belgium) performed the analysis to determine acoziborole and SCYX-3109 concentrations, using validated bioanalytical assays with liquid chromatography with tandem mass spectrometry (LC-MS/MS) with a Supelco Ascentis Express C8, 2.7 µm, 50 × 2.1 mm I.D. separation column. In plasma, the lower limit of quantification (LLOQ) was 25 ng/mL for acoziborole and 10 ng/mL for SCYX-3109. In urine, the LLOQ was 10 ng/mL for both acoziborole and SCYX-3109.
# PK parameters were calculated based on actual sampling times using standard non-compartmental analysis and WinNonlin version 8.1 software (Certara, Princeton, NJ, USA).
# The SCYX-3109 to parent ratios were calculated based on Cmax and AUC0–∞.
# [2] = Urinary excretion / renal clearance of acoziborole and SCYX-3109 by LC-MS/MS; assay type: in vivo; details: male, human, urine and plasma; CumAe0–240h/AUC0–240h; mean ± SD; 960 mg single oral dose of acoziborole; read-out: renal clearance CLr0–240h (converted)
# Procedure: Urine samples were collected before IP administration (single urine void) and then during intervals of 0–6, 6–12, 12–24, 24–48, 48–72, 72–96, 96–120, 120–168, 168–192, 192–216, and 216–240 h post-dose and for the additional 48-h collection period starting on Day 15 post-dose, that is, 336–384 h. Samples were acidified with citric acid to avoid acoziborole degradation and were refrigerated until the end of the block collection periods. The total weight and volume of urine were then recorded. At the end of each collection period, two aliquots of acidified urine (20 mL) were taken from the sample and stored in polypropylene tubes at −20°C until further analysis for total radioactivity. Two aliquots of 1 mL acidified urine were collected into tubes containing bovine serum albumin in aqueous solution (to avoid non-specific adsorption of acoziborole) and NaCl for acoziborole and SCYX-3109 assays. […]
# as §1, with “In urine, the LLOQ was 10 ng/mL for both acoziborole and SCYX-3109.” left out
# [3] = Metabolite profiling and identification in pools of plasma, urine and feces (UPLC-MS, AMS); assay type: in vivo, human
# Procedure: Individual pools of plasma (0–336 h, including time points at 1, 4, 9, 12, 24, 48, 72, 96, 120, 168, 240, and 336 h), urine (0–240 h, including time intervals 0–6, 6–12, 12–24, 24–48, 48–72, 72–96, 96–120, 120–168, 168–192, 192–216, and 216–240 h) and feces homogenates (0–240 h, including time intervals 0–6, 6–12, 12–24, 24–48, 48–72, 72–96, 96–120, 120–168, and 168–240 h) were prepared; for plasma this was done according to the method described in reference and for feces by using equal percentages per time point based on total volume. Subsequently, a pool per matrix was prepared by mixing equal volumes of each participant pool. In addition, a plasma pre-dose pool was prepared by mixing equal volumes of each pre-dose sample. For urine and feces, TNO blank pool was used to generate a pre-dose sample. Samples were stored below −18°C. Samples (100 µL plasma, 250 µL urine, and 200 mg feces) were pre-treated and injected onto an ultra-high performance liquid chromatography (UPLC)-MS system (Acquity UPLC system [Waters] coupled to a Q-Exactive [Thermo]; Acquity HSS C18 VanGuard 5 mm × 2.1 mm, 1.8 µm [Waters] pre-column and Acquity HSS C18 100 mm × 2.1 mm, 1.8 µm d.p. [Waters]). Fractions were collected and analyzed off-line by AMS. AMS analysis was performed on an AMS system, consisting of an elemental analyzer, a double gas interface, and a 1 MV multi-element AMS. All fecal homogenate sample analyzes were performed in triplicate. Plasma pre-dose and TNO blank urine and feces pools were used for background correction. The UPLC method qualification included determination of retention time stability and extraction recovery. Metabolites were tentatively assigned to fractions in which activity greater than the baseline was observed, based on retention time and structural information provided by DNDi. Presence of the metabolite was confirmed by accurate mass data from high-resolution mass spectrometric analysis.
# [4] = design: method as in PMID 36763327; details: human, after acoziborole; cited from earlier work
# [5] = design: method as in PMID 21707314; details: cited from earlier work
structure (smiles),measurement,setting,value
CC(C)(O)c1ccc(NC(=O)c2ccc(F)cc2C(F)(F)F)cc1O [SCYX-3109],AUC(0-t),"[1]; human, plasma, po, 960 mg, 960 mg single oral dose of acoziborole, N = 6, mean ± SD, read-out: AUC0–240h in plasma",4370 ± 1020 ng·h/mL
same,AUC(0-t),"[1]; human, plasma, po, 960 mg, 960 mg single oral dose of acoziborole, N = 6, mean ± SD, read-out: AUC0–t in plasma",3730 ± 2320 ng·h/mL
same,Tmax,"[1]; human, plasma, po, 960 mg, 960 mg single oral dose of acoziborole, N = 6, mean ± SD, read-out: tmax in plasma",76.1 ± 28 h
same,Cmax,"[1]; male, human, plasma, 960 mg single oral dose of acoziborole, healthy males, N = 6, mean ± SD",30.5 ± 10.7 ng/mL
same,"plasma level relative to acoziborole, AUC0–240h ratio","[1]; over the 240-h period, 960 mg single oral dose",0.2%
same,CL renal,[2],0.6 mL/min
same,"proportion of the dose excreted, urine and feces combined",[3]; 0–240 h pools,12.3%
same,"abundance relative to dose, feces",[3]; feces homogenates 0–240 h,12.3%
same,"relative abundance in radiochromatogram, feces homogenates pool",[3]; feces homogenates 0–240 h,24.2%
same,"relative abundance in radiochromatogram (share of total radioactivity), plasma pool","[3]; plasma pool 0–336 h, 960 mg single oral [14C]-acoziborole",could not be detected
same,plasma concentrations at all time points,[4],very low
same,activity of the metabolite,[5],inactive
